Measured values as given in patent US20260294910A1, “ORAL PHARMACEUTICAL COMPOSITIONS” (Assembly Biosciences, Inc., priority 2023, published 2026).
Like-named read-outs stand apart in the source and are kept apart here. Each block holds one molecule with its values, some of them ahead of it.

Experiments:
[1] = human, oral; cited from earlier work
[2] = system: carbonic anhydrase I; test: carbonic anhydrase inhibition, CA I; type: biochemical
Description: Carbonic anhydrase inhibition can be measured using a carbonic anhydrase I assay as described in Katritzky et al. (J. Med. Chem. 1987, 30:2058) and a […] as described in Iyer et al. (J. Biomol. Screen 2006, 11:782).

[3] = biorelevant non-sink dissolution experiment; type: physicochemical; conditions: 37° C.
Protocol: The preliminary dissolution performance of the SD samples and bulk Compound 1 was tested in a biorelevant non-sink dissolution experiment. About 0.5 mg SD samples were dispersed into 6 mL SGF medium firstly and stirred magnetically with 250 rpm at 37° C. After 30 min, 5 mL cFaSSIF-V2 (2×) medium was added into the above medium and adjusted the pH to 6.5 with 100 μL NaHCO3 (80 g/L). At each time point of 15 and 30 min in SGF and 15, 30, 60, 120 min in FaSSIF, 0.5 mL suspension was taken out and centrifuged. The supernatants were analyzed by HPLC.

[4] = Dog IV study with and without oral charcoal administration (Example 10); type: in vivo, male non-naïve Beagle dogs; conditions: 0.10 mg/kg
Protocol: A 0.1 mg/mL solution of Compound 1 in 10% DMSO/10% Solutol HS15/80% Saline was prepared as follows: • 1) 4.63 mg Compound 1 was weighed into appropriately sized tube. • 2) 4.57 mL of DMSO was added into the tube. Vortexed for 2 minutes. • 3) 4.57 mL of Solutol HS15 was added into above tube. Vortexed for 2 minutes. • 4) 36.54 mL of saline was added. Vortex for 1 minute.
A 100 mg/mL suspension of Activated Charcoal in Saline was prepared as follows: • 1) 300 g Activated Charcoal was weighed into appropriately sized tube. • 2) 3000 mL of saline was added into the tube. • 3) Mixture was stirred for 10 minutes, and then sonicated for 10 minutes.
Two groups of Male non-naïve beagles were used for the dog PK study (n=2 per group). The prepared oral formulation was administered via oral administration with 25 gram dose of activated charcoal to Group 2 animals. Immediately after the PO administration, the prepared IV formulation was administered via 10 minutes IV infusion to both Group 1 and Group 2 animals with appropriate dosing volume to achieve the respective doses. Group 1 animals were fed before administration. Group 2 animals were fasted overnight before administration and were fed at 4 hours post oral administration.
At each time point, approximately 0.5 mL of whole blood was collected into K2EDTA tubes. […] Plasma samples were stored at approximately −80° C. until analyzed by LC-MS.

[5] = predicted human PK by allometric scaling; conditions: allometric scaling from multiple species
[6] = system: carbonic anhydrase II; test: carbonic anhydrase inhibition, CA II; type: biochemical
[7] = system: recurrent genital herpes (HSV); conditions: human, oral, 100, 200, 400 and 1200 mg vs placebo; cited from earlier work
[8] = system: genital HSV-2; conditions: human, oral, cited from earlier work
[9] = cited from earlier work
[10] = system: genital HSV; conditions: human, oral, cited from earlier work

Structure (SMILES): C[C@@H](c1ccccc1)N(CC(=O)Nc1ccc(-c2csc(N)n2)cc1)C(=O)c1ccncc1 [BILS-179 BS]
adverse events in early clinical trials [1]: suspended in early clinical trials due to adverse events

Concentration in FaSSIF at 45 min ([3]; FaSSIF (pH 6.5), 45 min): 140 ng/mL
Concentration in FaSSIF at 60 min ([3]; FaSSIF (pH 6.5), 60 min): 120 ng/mL
Concentration in FaSSIF at 90 min ([3]; FaSSIF (pH 6.5), 90 min): 140 ng/mL
Concentration in FaSSIF at 150 min ([3]; FaSSIF (pH 6.5), 150 min): 120 ng/mL
Concentration in SGF at 15 min ([3]; SGF (pH 1.7), 15 min): 100 ng/mL
Concentration in SGF at 30 min ([3]; SGF (pH 1.7), 30 min): 70 ng/mL
clearance without versus with oral charcoal [4]: slower
overall exposure without versus with oral charcoal [4]: higher
predicted human clearance [5]: 0.06 L/h
Structure (SMILES): Cc1nc(N2CCCN(c3ccc(-c4cc(F)ccc4F)cc3)C2=O)sc1S(N)(=O)=O [Compound 1, 2-(3-(2′,5′-difluoro-[1,1′-biphenyl]-4-yl)-2-oxotetrahydropyrimidin-1(2H)-yl)-4-methylthiazole-5-sulfonamide]
carbonic anhydrase I inhibition [2]: no or low levels of carbonic anhydrase inhibition
carbonic anhydrase II inhibition [6]: no or low levels of carbonic anhydrase inhibition

Structure (SMILES): Cc1cccc(C)c1N(CC(=O)Nc1ccc(-c2ncon2)cc1)C(=O)C1CCS(=O)(=O)CC1 [amenamevir]
time to lesion healing [7]: only significantly different between the very highest 1200 mg single dose group and the placebo-tested group
adverse events in early clinical trials [1]: suspended from early HSV clinical trials due to adverse events

Structure (SMILES): Cc1nc(N(C)C(=O)Cc2ccc(-c3ccccn3)cc2)sc1S(N)(=O)=O [pritelivir, N-Methyl-N-(4-methyl-5-sulfamoyl-1,3-thiazol-2-yl)-2-[4-(pyridin-2-yl)phenyl]acetamide]
genital swabs with HSV shedding ([8]; 100 mg daily after 400 mg loading dose, 28 days): 2.4%
free fraction of total plasma concentration [9]: 2-3%
protein binding ([9]; plasma): 97-98%
break-through shedding at 75 mg daily ([10]; 75 mg daily): break-through shedding remained
antiviral effect ([10]; daily 75 mg vs weekly 400 mg): An oral daily dose of 75 mg had the greatest antiviral effect and this was found to be superior to the less frequently administered weekly dose of 400 mg
number of days with lesions ([10]; genital herpes): reduced the number of days with lesions
rate of genital HSV shedding ([10]; high doses, 28 days): reduced the rate of genital HSV shedding

Structure (SMILES): CC(C)[C@H](N)C(=O)OCCOCn1cnc2c(=O)[nH]c(N)nc21 [valacyclovir]
genital swabs with HSV shedding ([8]; 500 mg daily): 5.3%
